Measured values: ChEMBL document CHEMBL6087479, “Discovery of a Potent and Selective GSPT1 Molecular Glue Degrader for the Treatment of Castration-Resistant Prostate Cancer” (J Med Chem, 2025)
One block for each molecule: values may come before it. Active and inactive are the calls of the source. No cut-off for these calls is given here.

Legend:
[1] = tested on: CWR22R; assay: Antiproliferative activity against human 22Rv1 cells assessed as inhibition of cell proliferation by CellTiter-Glo assay
[2] = tested on: LNCaP C4-2B; assay: cells; conditions: Homo sapiens, 96 h
Description: Antiproliferative activity against human LNCaP C4-2B cells assessed as inhibition of cell proliferation incubated for 96 hrs by CellTiter-Glo assay

[3] = target: Protein cereblon/Eukaryotic peptide chain release factor GTP-binding subunit ERF3A (Homo sapiens) (UniProt Q96SW2+P15170); assay: Protac activity at CRBN/GSPT1 in human 22Rv1 cells assessed as GSPT1 degradation at 12 to 1000 nM incubated for 6 hrs by Western blotting analysis; type: cell-based; conditions: dose 12-1000 nM
Sequence of Protein cereblon/Eukaryotic peptide chain release factor GTP-binding subunit ERF3A (Homo sapiens) (P15170 whole entry, looked up): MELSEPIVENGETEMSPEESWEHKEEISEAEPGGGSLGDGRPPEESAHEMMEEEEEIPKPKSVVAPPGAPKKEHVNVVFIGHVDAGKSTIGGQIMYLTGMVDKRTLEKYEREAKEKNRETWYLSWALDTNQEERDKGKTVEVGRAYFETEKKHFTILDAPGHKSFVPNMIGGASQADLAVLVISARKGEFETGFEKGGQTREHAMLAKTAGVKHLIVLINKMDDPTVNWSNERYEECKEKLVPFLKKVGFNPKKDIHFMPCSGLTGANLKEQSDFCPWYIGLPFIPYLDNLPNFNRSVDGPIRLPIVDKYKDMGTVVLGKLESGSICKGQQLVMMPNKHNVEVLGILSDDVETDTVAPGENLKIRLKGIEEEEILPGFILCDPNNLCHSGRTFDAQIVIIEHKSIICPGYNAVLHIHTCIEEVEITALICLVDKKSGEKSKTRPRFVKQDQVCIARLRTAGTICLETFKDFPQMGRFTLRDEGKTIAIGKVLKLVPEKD
Sequence of Protein cereblon/Eukaryotic peptide chain release factor GTP-binding subunit ERF3A (Homo sapiens) (Q96SW2 whole entry, looked up): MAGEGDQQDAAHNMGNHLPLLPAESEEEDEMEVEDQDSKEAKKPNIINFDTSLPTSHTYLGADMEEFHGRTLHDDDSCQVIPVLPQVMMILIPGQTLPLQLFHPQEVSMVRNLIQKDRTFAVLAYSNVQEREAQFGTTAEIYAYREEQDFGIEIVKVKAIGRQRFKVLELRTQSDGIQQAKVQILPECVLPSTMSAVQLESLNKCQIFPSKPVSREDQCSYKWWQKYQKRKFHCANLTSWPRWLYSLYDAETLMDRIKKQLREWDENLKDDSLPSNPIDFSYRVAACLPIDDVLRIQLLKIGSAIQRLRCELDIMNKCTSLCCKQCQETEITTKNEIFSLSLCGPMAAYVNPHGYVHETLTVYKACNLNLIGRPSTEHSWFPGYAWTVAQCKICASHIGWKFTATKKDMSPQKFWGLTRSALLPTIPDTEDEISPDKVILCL

[4] = tested on: CWR22R; assay: cells; conditions: Homo sapiens, 22Rv1, 96 h
Description: Antiproliferative activity against human 22Rv1 cells assessed as inhibition of cell proliferation incubated for 96 hrs by CellTiter-Glo assay

[5] = tested on: LNCaP; assay: cells; conditions: Homo sapiens, 96 h
Description: Antiproliferative activity against human LNCaP cells assessed as inhibition of cell proliferation incubated for 96 hrs by CellTiter-Glo assay

[6] = target: Protein cereblon/Bromodomain-containing protein 4 (Homo sapiens) (UniProt O60885+Q96SW2); assay: Molecular glue degradation activity at CRBN/BRD4 in human 22Rv1 cells at 12 to 1000 nM incubated for 6 hrs by Immunoblotting analysis; type: cell-based; conditions: dose 12-1000 nM
Sequence of Protein cereblon/Bromodomain-containing protein 4 (Homo sapiens) (Q96SW2 whole entry, looked up, other chains not shown): as the sequence (Q96SW2 whole entry, looked up) above

[7] = tested on: CWR22R; assay: Downregulation of HSP90B1 expression in human 22Rv1 cells incubated for 12 hrs by qRT-PCR analysis; type: functional, cell-based
[8] = tested on: CWR22R; assay: Downregulation of GSPT1 protein level in human 22Rv1 cells at 300 nM by Immunoblotting analysis; type: functional, cell-based; conditions: time 1-6 hrs
[9] = tested on: CWR22R; assay: Antitumor activity against human 22Rv1 cells xenografted in NOD-SCID mouse assessed as tumor growth inhibition at 10 mg/kg, ip administered once daily for 21 days relative to control; type: functional; conditions: 22Rv1, 504 h, time 21 day, read-out: TGI
[10] = tested on: CWR22R; assay: Downregulation of PSA mRNA level in human 22Rv1 cells at 500 nM incubated for 12 hrs by qRT-PCR analysis; type: functional, cell-based
[11] = tested on: CWR22R; assay: Downregulation of CDK2 expression in human 22Rv1 cells incubated for 12 hrs by qRT-PCR analysis; type: functional, cell-based
[12] = tested on: CWR22R; assay: Downregulation of c-MYC mRNA level in human 22Rv1 cells at 500 nM incubated for 12 hrs by qRT-PCR analysis; type: functional, cell-based
[13] = tested on: CWR22R; assay: Downregulation of GSPT1 protein level in human 22Rv1 cells incubated for 6 hrs by Immunoblotting analysis; type: functional, cell-based; conditions: dose 12-1000 nM
[14] = tested on: CWR22R; assay: Downregulation of AR-FL protein level in human 22Rv1 cells at 12 to 1000 nM incubated for 12 hrs by Immunoblotting analysis; type: functional, cell-based; conditions: dose 12-1000 nM
[15] = tested on: CWR22R; assay: Downregulation of TMPRSS2 expression in human 22Rv1 cells incubated for 12 hrs by qRT-PCR analysis; type: functional, cell-based
[16] = tested on: CWR22R; assay: Downregulation of AR-FL mRNA level in human 22Rv1 cells at 500 nM incubated for 12 hrs by qRT-PCR analysis; type: functional, cell-based
[17] = tested on: CWR22R; assay: Downregulation of PSA protein level in human 22Rv1 cells at 12 to 1000 nM incubated for 12 hrs by Immunoblotting analysis; type: functional, cell-based; conditions: dose 12-1000 nM
[18] = tested on: CWR22R; assay: Antitumor activity against human 22Rv1 cells xenografted in NOD-SCID mouse assessed as tumor growth inhibition at 20 mg/kg, ip administered once daily for 21 days relative to control; type: functional; conditions: 22Rv1, 504 h, time 21 day, read-out: TGI
[19] = Binding affinity to […]/DDB1/N-terminal H6-Avi-tagged CRBN TBD (unknown origin) expressed in BL21 (DE3) cells assessed as dissociation constant by BLI assay; set-up: species or system Homo sapiens
[20] = tested on: CWR22R; assay: Downregulation of BRD4 protein level in human 22Rv1 cells at 500 nM incubated for 6 hrs by mass spectrometry-based label-free quantitative proteomics analysis; type: functional, cell-based
[21] = target: Eukaryotic peptide chain release factor GTP-binding subunit ERF3A (Homo sapiens) (UniProt P15170); conditions: dose 200.0 µM, time 45.0 min
Sequence of Eukaryotic peptide chain release factor GTP-binding subunit ERF3A (Homo sapiens) (P15170 whole entry): as the sequence (P15170 whole entry, looked up) above

[22] = tested on: CWR22R; assay: Antiproliferative activity against siCRBN knockdown human 22Rv1 cells assessed as inhibition of cell growth by Cell-titer Glo luminescent assay; type: functional, cell-based
[23] = tested on: CWR22R; assay: Downregulation of c-MYC protein level in human 22Rv1 cells at 12 to 1000 nM incubated for 12 hrs by Immunoblotting analysis; type: functional, cell-based; conditions: dose 12-1000 nM
[24] = tested on: CWR22R; assay: Downregulation of EGFR expression in human 22Rv1 cells incubated for 12 hrs by qRT-PCR analysis; type: functional, cell-based
[25] = Downregulation of GSPT1 protein level in human 22Rv1 cells at 12 to 1000 nM incubated for 6 hrs by Immunoblotting analysis; conditions: 22Rv1, 6 h
[26] = Toxicity in wild-type NOD-SCID mouse assessed as tolerability administered intraperitoneally once daily for 21 days; conditions: in vivo, ip, 504 h, time 21 day
[27] = tested on: CWR22R; assay: Downregulation of E2F3 expression in human 22Rv1 cells incubated for 12 hrs by qRT-PCR analysis; type: functional, cell-based
[28] = tested on: CWR22R; assay: Downregulation of BCL-XL level in human 22Rv1 cells at 12 to 1000 nM incubated for 12 hrs by Immunoblotting analysis; type: functional, cell-based; conditions: dose 12-1000 nM
[29] = tested on: CWR22R; assay: Downregulation of BRD2 protein level in human 22Rv1 cells at 500 nM incubated for 6 hrs by mass spectrometry-based label-free quantitative proteomics analysis; type: functional, cell-based
[30] = tested on: CWR22R; assay: Downregulation of MCL-1 level in human 22Rv1 cells at 12 to 1000 nM incubated for 12 hrs by Immunoblotting analysis; type: functional, cell-based; conditions: dose 12-1000 nM
[31] = tested on: CWR22R; assay: Downregulation of GSPT1 mRNA level in human 22Rv1 cells at 100 to 300 nM incubated for 12 hrs by qRT-PCR analysis; type: functional, cell-based; conditions: dose 100-300 nM
[32] = tested on: CWR22R; assay: Downregulation of AR-V7 protein level in human 22Rv1 cells at 12 to 1000 nM incubated for 12 hrs by Immunoblotting analysis; type: functional, cell-based; conditions: dose 12-1000 nM
[33] = tested on: CWR22R; assay: Inhibition of colony formation in human 22Rv1 cells at 6.25 to 25 nM incubated for 14 days by crystal violet staining based assay; type: functional, cell-based; conditions: dose 6.25-25 nM, time 14.0 day
[34] = tested on: CWR22R; assay: Downregulation of AR-V7 mRNA level in human 22Rv1 cells at 500 nM incubated for 12 hrs by qRT-PCR analysis; type: functional, cell-based
[35] = target: Bromodomain-containing protein 4 (Homo sapiens, UniProt O60885); assay: Binding affinity to BRD4 BD1 (unknown origin) assessed as dissociation constant by BLI assay
[36] = tested on: CWR22R; assay: Downregulation of BCL2 expression in human 22Rv1 cells incubated for 12 hrs by qRT-PCR analysis; type: functional, cell-based
[37] = tested on: CWR22R; assay: Downregulation of GSPT1 protein level in human 22Rv1 cells at 500 nM incubated for 6 hrs by mass spectrometry-based label-free quantitative proteomics analysis; type: functional, cell-based
[38] = tested on: CWR22R; assay: Reduction of GSPT1 in siCRBN transfected human 22Rv1 cells at 500 nM incubated for 6 hrs by Western blotting analysis; type: functional, cell-based
[39] = target: Eukaryotic peptide chain release factor GTP-binding subunit ERF3A (Homo sapiens) (UniProt P15170); assay: Binding affinity to GSPT1 (unknown origin) by BLI assay
[40] = tested on: CWR22R; assay: Downregulation of BCL2 level in human 22Rv1 cells at 12 to 1000 nM incubated for 12 hrs by Immunoblotting analysis; type: functional, cell-based; conditions: dose 12-1000 nM

Structure (SMILES): O=C1CCC(N2Cc3cc(CNC(=O)C(F)(F)c4ccc(Cl)cc4)ccc3C2=O)C(=O)N1 (stereo not given)
IC50 [1]: 16 nM

Structure (SMILES): COc1ccc(Br)cc1S(=O)(=O)Nc1cc2c(C)noc2cc1OCC(=O)NCCCNc1cccc2c1C(=O)N(C1CCC(=O)NC1=O)C2=O (stereo not given)
IC50 [2]: 0.624 µM | Activity [3]: Active; Moderate Effect Of Degradation Observed | IC50 [4]: 26 nM | IC50 [5]: 0.1 µM | Activity [6]: inactive

Structure (SMILES): COc1ccc(Br)cc1S(=O)(=O)Nc1cc2c(C)noc2cc1OCC(=O)NCCCNc1ccc2c(c1)C(=O)N(C1CCC(=O)NC1=O)C2=O (stereo not given)
IC50 [2]: > 10 µM | IC50 [4]: 1380 nM | IC50 [5]: > 10 µM

Structure (SMILES): COc1ccc(Br)cc1S(=O)(=O)Nc1cc2c(C)noc2cc1OCC(=O)NCCCCCNc1cccc2c1C(=O)N(C1CCC(=O)NC1=O)C2=O (stereo not given)
IC50 [2]: 0.374 µM | Activity [7]: Active | Activity [8]: Time-dependent-effect | inhibition in vivo at 10 mg/kg [9]: 44% | Activity [10]: Active | Activity [11]: Active | Activity [12]: Active | Activity [13]: Dose-dependent-effect | IC50 [1]: 7 nM | Activity [14]: Active | Activity [15]: Active | Activity [16]: Active | Activity [17]: Active | Activity [3]: Active | inhibition in vivo at 20 mg/kg [18]: 55% | Kd [19]: 930 nM | Activity [20]: inactive | deltaTm [21]: inactive | IC50 [4]: 7 nM | Activity [22]: inactive | Activity [23]: Active | Activity [24]: Active | IC50 [5]: 0.034 µM | DC50 [25]: 19 nM | Activity [26]: Non-toxic | Activity [27]: Active | Activity [28]: Active | Activity [29]: inactive | Activity [30]: Active | Activity [31]: inactive | Activity [32]: Active | inhibition [33]: Active | Activity [34]: Active | Kd [35]: 38 µM | Activity [36]: Active | Activity [37]: Active | Activity [38]: inactive | Activity [39]: inactive | Activity [40]: Active | Activity [6]: inactive

Structure (SMILES): Cc1sc2c(c1C)C(c1ccc(Cl)cc1)=N[C@@H](CC(=O)NCCCCNC(=O)COc1cccc3c1C(=O)N(C1CCC(=O)NC1=O)C3=O)c1nnc(C)n1-2 (stereo not given in full)
IC50 [2]: 3.11 µM | IC50 [4]: 1750 nM | IC50 [5]: 2.25 µM | Activity [29]: Active | Activity [37]: inactive | Activity [6]: Active

Structure (SMILES): COc1ccc(Br)cc1S(=O)(=O)Nc1cc2c(C)noc2cc1OCC(=O)NCCNC(=O)COc1cccc2c1C(=O)N(C1CCC(=O)NC1=O)C2=O (stereo not given)
IC50 [2]: > 10 µM | IC50 [4]: > 10000 nM | IC50 [5]: > 10 µM

Structure (SMILES): COc1ccc(Br)cc1S(=O)(=O)Nc1cc2c(C)noc2cc1OCC(=O)NCCCCCCNc1ccc2c(c1)C(=O)N(C1CCC(=O)NC1=O)C2=O (stereo not given)
IC50 [2]: > 10 µM | IC50 [4]: > 10000 nM | IC50 [5]: > 10 µM

The next lines start with the values.

IC50 [2]: > 10 µM | IC50 [4]: > 10000 nM | IC50 [5]: > 10 µM
Structure (SMILES): COc1ccc(Br)cc1S(=O)(=O)Nc1cc2c(C)noc2cc1OCC(=O)NCCCCCCNC(=O)COc1cccc2c1C(=O)N(C1CCC(=O)NC1=O)C2=O (stereo not given)

IC50 [2]: > 10 µM | IC50 [4]: > 10000 nM | IC50 [5]: > 10 µM
Structure (SMILES): COc1ccc(Br)cc1S(=O)(=O)Nc1cc2c(C)noc2cc1OCC(=O)NCCCCCNC(=O)COc1cccc2c1C(=O)N(C1CCC(=O)NC1=O)C2=O (stereo not given)

IC50 [2]: > 10 µM | IC50 [4]: > 10000 nM | IC50 [5]: > 10 µM
Structure (SMILES): COc1ccc(Br)cc1S(=O)(=O)Nc1cc2c(C)noc2cc1OCC(=O)NCCCCNC(=O)COc1cccc2c1C(=O)N(C1CCC(=O)NC1=O)C2=O (stereo not given)
